Laboratory results reported in US8658791B2, “2-substituted-6-amino-5-alkyl, alkenyl or alkynyl-4-pyrimidinecarboxylic acids and 6-substituted-4-amino-3-alkyl, alkenyl or alkynyl picolinic acids and their use as herbicides” (Dow AgroSciences, LLC, priority 2007, dated 2014).

Assays:
Type in all cases: in vivo
[1] = test system: lambsquarter (Chenopodium album); assay: General postemergence herbicidal activity, CHEAL; settings: Chenopodium album, post-emergence, 336 h, postemergence spray, visual score after 14 days, 0 = no injury, 100 = complete kill, read-out: Post-emergent Weed Control CHEAL; for pest or weed control at 280 g/ha: 280 g ai/ha; for pest or weed control at 140 g/ha: 140 g ai/ha
Method: (§1) Seeds or nutlets of the desired test plant species were planted in Sun Gro MetroMix® 306 planting mixture, which typically has a pH of 6.0 to 6.8 and an organic matter content of about 30 percent, in plastic pots with a surface area of 103 square centimeters. When required to ensure good germination and healthy plants, a fungicide treatment and/or other chemical or physical treatment was applied. The plants were grown for 7-21 days in a greenhouse with an approximate 15 hour photoperiod which was maintained at about 23-29° C. during the day and 22-28° C. during the night. Nutrients and water were added on a regular basis and supplemental lighting was provided with overhead metal halide 1000-Watt lamps as necessary. The plants were employed for testing when they reached the first or second true leaf stage.
(§2) A weighed amount, determined by the highest rate to be tested, of each test compound was placed in a 25 mL glass vial and was dissolved in 4 mL of a 97:3 v/v (volume/volume) mixture of acetone and dimethyl sulfoxide (DMSO) to obtain concentrated stock solutions. […] The concentrated stock solutions obtained were diluted with 20 mL of an aqueous mixture containing acetone, water, isopropyl alcohol, DMSO, Atplus 411F crop oil concentrate, and Triton® X-155 surfactant in a 48.5:39:10:1.5:1.0:0.02 v/v ratio to obtain spray solutions containing the highest application rates. Additional application rates were obtained by serial dilution of 12 mL of the high rate solution into a solution containing 2 mL of 97:3 v/v (volume/volume) mixture of acetone and dimethyl sulfoxide (DMSO) and 10 mL of an aqueous mixture containing acetone, water, isopropyl alcohol, DMSO, Atplus 411F crop oil concentrate, and Triton X-155 surfactant in a 48.5:39:10:1.5:1.0:0.02 v/v ratio to obtain 1/2X, 1/4X, 1/8X and 1/16X rates of the high rate. Compound requirements are based upon a 12 mL application volume at a rate of 187 L/ha. Formulated compounds were applied to the plant material with an overhead Mandel track sprayer equipped with a 8002E nozzles calibrated to deliver 187 L/ha over an application area of 0.503 square meters at a spray height of 18 inches (43 cm) above the average plant canopy height. Control plants were sprayed in the same manner with the solvent blank.
(§3) The treated plants and control plants were placed in a greenhouse as described above and watered by sub-irrigation to prevent wash-off of the test compounds. After 14 days, the condition of the test plants as compared with that of the untreated plants was determined visually and scored on a scale of 0 to 100 percent where 0 corresponds to no injury and 100 corresponds to complete kill.

[2] = test system: velvetleaf (Abutilon theophrasti); assay: General postemergence herbicidal activity, ABUTH; settings: Abutilon theophrasti, post-emergence, 336 h, postemergence spray, visual score after 14 days, 0 = no injury, 100 = complete kill, read-out: Post-emergent Weed Control ABUTH; for pest or weed control at 280 g/ha: 280 g ai/ha; for pest or weed control at 140 g/ha: 140 g ai/ha
Method: as §1, §2, §3

[3] = test system: wild poinsettia (Euphorbia heterophylla); assay: General postemergence herbicidal activity, EPHHL; settings: Euphorbia heterophylla, post-emergence, 336 h, postemergence spray, visual score after 14 days, 0 = no injury, 100 = complete kill, read-out: Post-emergent Weed Control EPHHL; for pest or weed control at 280 g/ha: 280 g ai/ha; for pest or weed control at 140 g/ha: 140 g ai/ha
Method: as §1, §2, §3

[4] = test system: barnyardgrass (Echinochloa crus-galli); assay: General postemergence herbicidal activity, ECHCG; settings: Echinochloa crus-galli, post-emergence, 336 h, postemergence spray, visual score after 14 days, 0 = no injury, 100 = complete kill, read-out: Post-emergent Weed Control ECHCG; for pest or weed control at 280 g/ha: 280 g ai/ha; for pest or weed control at 140 g/ha: 140 g ai/ha
Method: as §1, §2, §3

rice (Oryza sativa) = assay: General postemergence herbicidal activity, ORYSA; settings: Oryza sativa, post-emergence, 336 h, postemergence spray, visual score after 14 days, 0 = no injury, 100 = complete kill, read-out: Post-emergent Weed Control ORYSA; for plant injury at 280 g/ha: 280 g ai/ha; for plant injury at 140 g/ha: 140 g ai/ha
Method: as §1, §2, §3

Row | Compound | pest or weed control at 280 g/ha [1] [%] | pest or weed control at 280 g/ha [2] [%] | pest or weed control at 280 g/ha [3] [%] | pest or weed control at 280 g/ha [4] [%] | plant injury at 280 g/ha (rice (Oryza sativa)) [%] | further results
1 | COC(=O)c1nc(-c2ccc(Cl)cc2)c(F)c(N)c1C [Compound 25, 4-Amino-6-(4-chlorophenyl)-5-fluoro-3-methylpyridine-2-carboxylic acid methyl ester] | 100 | 70 | 100 | 0 | 0 | 
2 | C=Cc1c(C(=O)OC)nc(-c2ccc(Cl)cc2)c(F)c1N [Compound 26, 4-Amino-6-(4-chlorophenyl)-5-fluoro-3-vinylpyridine-2-carboxylic acid methyl ester] |  |  |  |  |  | pest or weed control at 140 g/ha [1]: 100%; pest or weed control at 140 g/ha [2]: 100%; pest or weed control at 140 g/ha [3]: 90%; pest or weed control at 140 g/ha [4]: 70%; plant injury at 140 g/ha (rice (Oryza sativa)): 0%
3 | COC(=O)c1nc(-c2ccc(Cl)c(OC)c2F)cc(N)c1C [Compound 27, 4-Amino-6-(4-chloro-2-fluoro-3-methoxyphenyl)-3-methyl-pyridine-2-carboxylic acid methyl ester] | 30 | 80 | 100 | 0 | 0 | 
4 | C=Cc1c(N)cc(-c2ccc(Cl)cc2F)nc1C(=O)OC [Compound 29, 4-Amino-6-(4-chloro-2-fluorophenyl)-3-vinylpyridine-2-carboxylic acid methyl ester] | 85 | 85 | 75 | 0 | 10 | 
5 | C=C(F)c1c(C(=O)OC)nc(-c2ccc(Cl)cc2)c(F)c1N [Compound 30, 4-Amino-6-(4-chlorophenyl)-5-fluoro-3-(1-fluorovinyl)pyridine-2-carboxylic acid methyl ester] |  |  |  |  |  | pest or weed control at 140 g/ha [1]: 100%; pest or weed control at 140 g/ha [2]: 100%; pest or weed control at 140 g/ha [3]: 90%; pest or weed control at 140 g/ha [4]: 0%; plant injury at 140 g/ha (rice (Oryza sativa)): 0%
6 | C#Cc1c(N)cc(-c2ccc(Cl)c(OC)c2F)nc1C(=O)OC [Compound 31, 4-Amino-6-(4-chloro-2-fluoro-3-methoxyphenyl)-3-ethynyl-pyridine-2-carboxylic acid methyl ester] |  |  |  |  |  | pest or weed control at 140 g/ha [1]: 95%; pest or weed control at 140 g/ha [2]: 95%; pest or weed control at 140 g/ha [3]: 100%; pest or weed control at 140 g/ha [4]: 80%; plant injury at 140 g/ha (rice (Oryza sativa)): 0%
7 | COC(=O)c1nc(-c2ccc(Cl)c(OC)c2F)nc(N)c1C(C)=O [Compound 32, 5-Acetyl-6-amino-2-(4-chloro-2-fluoro-3-methoxyphenyl)-pyrimidine-4-carboxylic acid methyl ester] | 70 | 70 | 100 | 0 | 0 | 
8 | COC(=O)c1nc(-c2ccc(Cl)c(OC)c2F)nc(N)c1C=O [Compound 33, 6-Amino-2-(4-chloro-2-fluoro-3-methoxyphenyl)-5-formyl-pyrimidine-4-carboxylic acid methyl ester] |  |  |  |  |  | pest or weed control at 229 g/ha ([1]; 229 g ai/ha): 50%; pest or weed control at 229 g/ha ([2]; 229 g ai/ha): 80%; pest or weed control at 229 g/ha ([3]; 229 g ai/ha): 100%; pest or weed control at 229 g/ha ([4]; 229 g ai/ha): 0%; plant injury at 229 g/ha (rice (Oryza sativa); 229 g ai/ha): 0%
9 | COC(=O)c1nc(-c2ccc(Cl)c(OC)c2F)cc(N)c1C=O [Compound 34, 4-Amino-6-(4-chloro-2-fluoro-3-methoxyphenyl)-3-formylpyridine-2-carboxylic acid methyl ester] | 90 | 100 | 95 | 95 | 0 | 
10 | COC(=O)c1nc(-c2ccc(Cl)c(OC)c2F)nc(N)c1C(F)F [Compound 35, 6-Amino-2-(4-chloro-2-fluoro-3-methoxy-phenyl)-5-difluoromethylpyrimidine-4-carboxylic acid methyl ester] | 85 | 75 | 90 | 0 | 0 | 
11 | COC(=O)c1nc(-c2ccc(Cl)c(OC)c2F)cc(N)c1C(F)F [Compound 36, 4-Amino-6-(4-chloro-2-fluoro-3-methoxyphenyl)-3-difluoromethylpyridine-2-carboxylic acid methyl ester] | 95 | 100 | 95 | 95 | 0 | 
12 | COC(=O)c1nc(-c2ccc(Cl)c(OC)c2F)nc(N)c1/C=C/Br [Compound 37, 6-Amino-5-((E)-2-bromovinyl)-2-(4-chloro-2-fluoro-3-methoxyphenyl)pyrimidine-4-carboxylic acid methyl ester] | 90 | 80 | 90 | 0 | 10 | 
13 | COC(=O)c1nc(-c2ccc(Cl)c(OC)c2F)nc(N)c1/C=C/SC [Compound 38, 6-Amino-2-(4-chloro-2-fluoro-3-methoxyphenyl)-5-((E)-2-methylsulfanylvinyl)pyrimidine-4-carboxylic acid methyl ester] | 100 | 90 | 100 | 60 | 0 | 
14 | COC(=O)c1nc(-c2ccc(Cl)c(OC)c2F)nc(N)c1C(C)F (stereo not drawn) [Compound 39, 6-Amino-2-(4-chloro-2-fluoro-3-methoxyphenyl)-5-(1-fluoroethyl)pyrimidine-4-carboxylic acid methyl ester] |  |  |  |  |  | pest or weed control at 140 g/ha [1]: 60%; pest or weed control at 140 g/ha [2]: 80%; pest or weed control at 140 g/ha [3]: 85%; pest or weed control at 140 g/ha [4]: 30%; plant injury at 140 g/ha (rice (Oryza sativa)): 0%
15 | C=Cc1c(N)nc(-c2ccc(Cl)c(OC(F)F)c2F)nc1C(=O)O [Compound 50, 6-Amino-2-(4-chloro-3-difluoromethoxy-2-fluorophenyl)-5-vinylpyrimidine-4-carboxylic acid] | 100 | 95 | 100 | 100 | 45 | 
